We go through 54 compounds from ChEMBL document CHEMBL6087440, “Catalytic Lysine745 targeting strategy in fourth-generation EGFR tyrosine kinase inhibitors to address C797S mutation resistance” (Eur J Med Chem, 2025).

In general, IC50 refers to the concentration that gives 50% inhibition. A word on the clearance: it is a measure of how efficiently the substance is removed, as volume per time.

For data set [1], the target named is Epidermal growth factor receptor (Homo sapiens, UniProt P00533, C797S/L858R/T790M). Put plainly: Inhibition of EGFR L858R/T790M/C797S triple mutant (unknown origin).
A further data set deals with BaF3. Put plainly: Antiproliferative activity against mouse BaF3 cells harboring EGFR L858R/T790M/C797S triple mutant assessed as inhibition of cell growth incubated for 72 hrs by CellTiter-Glo luminescent assay. It counts as functional, cell-based. The settings on record: BaF3, 72 h.
Data set [2] can be described thus: Clearance in cynomolgus monkey at 1 mg/kg, iv by LC-MS/MS analysis. It counts as ADME, organism-based, Macaca fascicularis. The settings on record: in vivo.
The target of data set [3] is Epidermal growth factor receptor (Homo sapiens, UniProt P00533). Put plainly: Inhibition of wild type EGFR (unknown origin).
Data set [4] concerns the target Epidermal growth factor receptor (Homo sapiens, UniProt P00533, C797S/EX19DEL/T790M). The experiment in a line: Inhibition of EGFR del19/T790M/C797S triple mutant (unknown origin) in presence of ATP by FRET assay.
Data set [5] in a line: Antiproliferative activity against human NCI-H1975 cells harboring EGFR L858R/T790M mutant assessed as cell growth inhibition incubated for 72 hrs by CellTiter Glo assay. It counts as functional, cell-based. Particulars: NCI-H1975, 72 h. (In general: ATP-based viability assays read luminescence as a measure of living cells.)
Data set [6] is described as follows: Antiproliferative activity against human NCI-H1975 cells harboring EGFR L858R/T790M/C797S mutant assessed as reduction in cell growth incubated for 72 hrs by SRB assay. It counts as functional, cell-based. The settings on record: NCI-H1975, 72 h. A general note: The SRB assay estimates cell density from bound dye.
Data set [7] can be described thus: Intrinsic clearance in human liver microsomes. It is filed as ADME, Microsome.
A short description of data set [8]: Antiproliferative activity against mouse Ba/F3 EGFR-T790M/C797S/L858R cells. It counts as functional, cell-based.
Data set [9] deals with Tyrosine-protein kinase BTK (Homo sapiens, UniProt Q06187). The experiment in a line: Inhibition of wild type BTK (unknown origin) using TK as substrate incubated for 1 hr by HTRF assay. For orientation: Time-resolved FRET reads energy transfer from a long-lived donor to a nearby acceptor.
The test system of the next data set is A549. Put plainly: Antiproliferative activity against human A549 cells harboring wild type EGFR assessed as inhibition of cell proliferation incubated for 72 hrs by CCK8 assay. It is filed as functional, cell-based. The settings on record: A549, 72 h.

Sequence of Epidermal growth factor receptor (Homo sapiens, UniProt P00533, C797S/L858R/T790M) (P00533 25-1210 T790M/C797S/L858R limits assumed): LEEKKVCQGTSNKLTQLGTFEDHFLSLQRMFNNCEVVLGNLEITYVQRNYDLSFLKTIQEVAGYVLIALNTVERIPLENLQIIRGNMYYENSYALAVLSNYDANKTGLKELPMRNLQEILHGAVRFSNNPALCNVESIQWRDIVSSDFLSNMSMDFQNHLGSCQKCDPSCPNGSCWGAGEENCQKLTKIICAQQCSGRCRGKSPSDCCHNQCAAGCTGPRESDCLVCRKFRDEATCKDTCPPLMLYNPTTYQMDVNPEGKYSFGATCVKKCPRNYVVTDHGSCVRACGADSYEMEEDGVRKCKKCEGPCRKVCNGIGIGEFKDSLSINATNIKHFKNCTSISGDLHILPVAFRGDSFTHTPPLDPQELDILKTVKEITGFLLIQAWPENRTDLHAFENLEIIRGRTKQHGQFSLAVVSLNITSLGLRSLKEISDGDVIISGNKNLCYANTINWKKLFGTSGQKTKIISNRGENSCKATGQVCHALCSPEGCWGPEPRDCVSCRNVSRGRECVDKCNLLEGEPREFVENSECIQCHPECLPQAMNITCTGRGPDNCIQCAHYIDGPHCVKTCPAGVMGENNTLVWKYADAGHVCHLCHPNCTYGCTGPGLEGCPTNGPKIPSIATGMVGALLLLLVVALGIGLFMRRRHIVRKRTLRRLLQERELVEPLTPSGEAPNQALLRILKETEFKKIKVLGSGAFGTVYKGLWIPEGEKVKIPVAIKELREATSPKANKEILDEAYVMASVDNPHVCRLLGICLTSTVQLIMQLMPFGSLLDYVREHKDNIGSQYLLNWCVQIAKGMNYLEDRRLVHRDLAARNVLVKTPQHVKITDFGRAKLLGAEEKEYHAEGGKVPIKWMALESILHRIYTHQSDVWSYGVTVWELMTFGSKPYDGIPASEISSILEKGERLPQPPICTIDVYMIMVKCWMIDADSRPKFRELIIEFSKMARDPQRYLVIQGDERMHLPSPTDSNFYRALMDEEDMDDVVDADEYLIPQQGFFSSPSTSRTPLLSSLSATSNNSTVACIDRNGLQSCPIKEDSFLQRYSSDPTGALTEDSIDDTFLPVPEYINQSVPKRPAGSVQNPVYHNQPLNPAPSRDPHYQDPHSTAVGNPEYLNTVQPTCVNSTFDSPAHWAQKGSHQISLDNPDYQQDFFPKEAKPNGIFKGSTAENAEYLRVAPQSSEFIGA
Sequence of Epidermal growth factor receptor (Homo sapiens, UniProt P00533, C797S/EX19DEL/T790M) (P00533 whole entry, looked up, stated change not applied): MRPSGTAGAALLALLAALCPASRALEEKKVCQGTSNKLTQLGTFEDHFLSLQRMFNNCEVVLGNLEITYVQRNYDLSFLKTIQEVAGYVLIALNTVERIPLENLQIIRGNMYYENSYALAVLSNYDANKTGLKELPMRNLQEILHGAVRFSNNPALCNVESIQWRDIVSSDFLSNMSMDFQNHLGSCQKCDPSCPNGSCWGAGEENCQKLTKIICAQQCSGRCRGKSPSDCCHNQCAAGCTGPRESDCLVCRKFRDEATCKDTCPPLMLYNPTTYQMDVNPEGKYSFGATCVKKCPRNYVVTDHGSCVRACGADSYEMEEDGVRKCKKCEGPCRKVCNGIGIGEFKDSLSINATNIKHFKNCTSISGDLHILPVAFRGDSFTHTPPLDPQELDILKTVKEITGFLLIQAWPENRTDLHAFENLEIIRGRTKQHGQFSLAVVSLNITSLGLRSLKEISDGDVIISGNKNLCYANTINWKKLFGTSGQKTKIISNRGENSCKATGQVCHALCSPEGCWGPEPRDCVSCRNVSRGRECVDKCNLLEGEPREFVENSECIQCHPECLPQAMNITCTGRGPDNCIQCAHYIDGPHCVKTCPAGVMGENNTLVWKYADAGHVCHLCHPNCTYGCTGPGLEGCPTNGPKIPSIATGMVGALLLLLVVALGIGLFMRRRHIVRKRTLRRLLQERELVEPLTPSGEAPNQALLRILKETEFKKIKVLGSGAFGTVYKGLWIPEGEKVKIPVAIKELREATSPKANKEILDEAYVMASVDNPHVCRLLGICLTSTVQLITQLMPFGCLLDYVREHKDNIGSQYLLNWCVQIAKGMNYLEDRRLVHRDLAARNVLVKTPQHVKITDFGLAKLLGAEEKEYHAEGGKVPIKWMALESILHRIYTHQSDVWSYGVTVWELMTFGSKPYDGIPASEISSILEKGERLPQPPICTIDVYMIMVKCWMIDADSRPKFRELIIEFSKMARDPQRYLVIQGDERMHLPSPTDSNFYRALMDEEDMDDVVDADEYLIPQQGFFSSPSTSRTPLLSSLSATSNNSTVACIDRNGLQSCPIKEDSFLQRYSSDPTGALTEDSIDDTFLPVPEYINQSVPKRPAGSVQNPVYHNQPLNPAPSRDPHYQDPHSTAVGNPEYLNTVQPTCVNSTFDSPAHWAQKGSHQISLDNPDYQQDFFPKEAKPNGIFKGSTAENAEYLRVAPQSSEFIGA
Sequence of Epidermal growth factor receptor (Homo sapiens, UniProt P00533) (P00533 whole entry): as the sequence (P00533 whole entry, looked up, stated change not applied) above
Sequence of Tyrosine-protein kinase BTK (Q06187 whole entry): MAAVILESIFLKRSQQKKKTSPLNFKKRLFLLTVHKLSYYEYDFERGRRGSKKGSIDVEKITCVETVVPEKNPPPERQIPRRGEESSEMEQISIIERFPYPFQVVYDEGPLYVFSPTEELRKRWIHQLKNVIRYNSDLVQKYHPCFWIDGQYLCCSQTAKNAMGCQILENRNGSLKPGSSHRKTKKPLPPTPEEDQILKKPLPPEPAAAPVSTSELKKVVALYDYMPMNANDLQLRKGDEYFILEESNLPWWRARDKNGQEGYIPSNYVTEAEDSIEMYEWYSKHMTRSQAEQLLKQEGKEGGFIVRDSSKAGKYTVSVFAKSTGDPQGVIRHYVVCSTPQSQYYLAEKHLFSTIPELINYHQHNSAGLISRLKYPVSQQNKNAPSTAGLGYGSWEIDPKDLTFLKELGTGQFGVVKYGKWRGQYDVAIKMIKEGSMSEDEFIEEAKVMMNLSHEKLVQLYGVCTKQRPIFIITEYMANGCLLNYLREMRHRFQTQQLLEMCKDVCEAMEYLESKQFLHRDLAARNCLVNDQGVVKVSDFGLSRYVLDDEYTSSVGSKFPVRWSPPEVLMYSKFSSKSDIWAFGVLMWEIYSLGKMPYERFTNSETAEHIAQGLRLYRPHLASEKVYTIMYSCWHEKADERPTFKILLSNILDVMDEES

Consider `Cc1cc(Nc2ncc(Cl)c(Nc3ccccc3P(C)(C)=O)n2)ccc1N1CCC(N2CCN(C)CC2)CC1`, for which the half-inhibitory concentration (IC50) in [1] was 0.6 nM.

Take `COc1cc(N2CCC(N3CC(F)(CO)C3)CC2)c(C)cc1Nc1ncc(Br)c(Nc2ccc3nccnc3c2P(C)(C)=O)n1`: the 50% inhibitory concentration (IC50) in the data set with BaF3 came out at 18.7 nM.

With `CC(C)c1ccc(N2CC(CS(C)(=O)=O)C2C)c2cnc(Nc3ccnc(N4CCC(O)C(C)(F)C4)n3)cc12` (stereo not given), the clearance in data set [2] worked out at 31.8 mL/min/kg.

Take `C=CC(=O)Nc1ccc(OC)c(Nc2cc(-c3[nH]c(CCCO)nc3-c3ccc(F)cc3)ccn2)c1`: the half-maximal inhibitory concentration (IC50) in data set [3] was 8 nM.

Take `CCS(=O)(=O)n1cc2c3ccc(cc31)OCCCCCOc1cc(ccc1N1CCOCC1)Nc1ncc(Cl)c-2n1`: the IC50 in data set [4] came out at 141 nM.

Take `CCc1cc(Nc2ncc(Br)c(Nc3ccc4c(c3P(C)(C)=O)OCCO4)n2)c(OC)cc1N1CCC(N2CC(N(C)C)C2)CC1`: the figures for the IC50 (in data set [4]; with BaF3) were 0.08 nM and 8 nM, respectively.

Take `COc1cc(N2CCC(N3CC(CC#N)C3)CC2)c(C)cc1Nc1ncc(Br)c(Nc2ccc3nccnc3c2P(C)(C)=O)n1`: in the data set with BaF3, the IC50 is 12.7 nM.

On to `C=CC(=O)Nc1cc(Nc2ncc(C(=O)OC(C)C)c(-c3cn(C)c4ccccc34)n2)c(OC)cc1N(C)CCN(C)C` [MOBOCERTINIB], for which the IC50 in the data set on BaF3 is 271 nM.

Consider `CCc1cc(Nc2ncc(Br)c(Nc3ccc4c(c3P(C)(C)=O)OCO4)n2)c(OC)cc1N1CCC(N2CC(N(C)C)C2)CC1`, for which the IC50 in data set [4] is 0.15 nM; in data set [1], 0.4 nM; with BaF3 it was 40 nM.

For the compound `CCOC1CN(C2CCN(c3cc(OC)c(Nc4ncc(Br)c(Nc5ccc6nccnc6c5P(C)(C)=O)n4)cc3C)CC2)C1`, the IC50 in the data set on BaF3 is 29 nM.

For the compound `COc1cc(N2CCC(N(C)C)CC2)c(-c2cn[nH]c2)cc1Nc1ncc(Cl)c(Nc2ccccc2P(C)(C)=O)n1`, the IC50 in [1] came out at 0.5 nM.

For `COc1cc(N2CCC(N3CCN(C)CC3)CC2)c(-c2cnn(C)c2)cc1Nc1ncc(Cl)c(Nc2ccccc2P(C)(C)=O)n1`, in data set [4], the half-inhibitory concentration (IC50) was 0.32 nM.

Consider `CNC(=O)c1cnc(Nc2ccnc(N3CCC(O)CC3)n2)cc1NC(C)C`, for which the IC50 in data set [5] was determined as 46 nM.

`CCS(=O)(=O)n1cc2c3ccc(cc31)OCCCCCCOc1cc(c(C)cc1N1CCOCC1)Nc1ncc(Cl)c-2n1`: the IC50 in [4] is 23.6 nM.

As to `COc1cc(N2CCN(C)CC2)ccc1Nc1ncc(C(=O)OC(C)C)c(-c2cn(C)c3ccccc23)n1`, in the data set with BaF3, the IC50 amounted to 615 nM.

In the case of `CNc1ncc(C(C)C)c2cc(Nc3ccnc(N4CCC(O)C(F)C4)n3)ncc12` (stereo not given), the half-inhibitory concentration (IC50) in data set [5] was determined as 12 nM.

Turning to `COc1cc(N2CCN(C)CC2)ccc1Nc1ncc(C(=O)Oc2ccccc2)c(-c2cn(C)c3ccccc23)n1`, the results for the IC50 (with BaF3; in data set [3]) were 94 nM and 0.05 nM, respectively.

Turning to `COCC1(C)CN(C2CCN(c3cc(OC)c(Nc4ncc(Br)c(Nc5ccc6nccnc6c5P(C)(C)=O)n4)cc3C)CC2)C1`, in the data set with BaF3, the 50% inhibitory concentration (IC50) came out at 22.3 nM.

For `Cc1cc(Nc2ncc(Cl)c(Nc3ccccc3NS(=O)(=O)C3CC3)n2)ccc1N1CCC(N(C)C)CC1`, the concentration for half-maximal inhibition (IC50) in data set [1] stood at 0.03 nM; in data set [3], 4.76 nM.

In the case of `COC1CCN(c2nccc(Nc3cc4c(C(C)C)ccc(N5CC(CS(C)(=O)=O)C5C)c4cn3)n2)CC1F` (stereo not given), the IC50 in data set [6] stood at 1.1 nM. The compound also yielded a CLH in data set [7] of 89 µL/min/mg.

In the case of `COc1cc(N2CCC(N3CC(C)(CO)C3)CC2)c(C)cc1Nc1ncc(Br)c(Nc2ccc3nccnc3c2P(C)(C)=O)n1`, the IC50 with BaF3 came out at 17.7 nM.

Compound `C=CC(=O)Nc1ccc(OC)c(Nc2cc(-c3[nH]c(SCCOC)nc3-c3ccc(F)cc3)ccn2)c1` showed an IC50 in [1] of 35 nM.

In the case of `COc1cc(N2CCC(N3CCN(C)CC3)CC2)ccc1Nc1ncc(Cl)c(-c2cn(S(=O)(=O)C(C)C)c3ccccc23)n1`, the IC50 in data set [4] was 33.3 nM; in [1] it was 222 nM.

As for `CN(C)C1CCN(c2ccc(Nc3ncc(Br)c(Nc4ccccc4NS(=O)(=O)C4CC4)n3)cc2NS(C)(=O)=O)CC1`, the IC50 in data set [8] came to 780 nM.

As to `CCS(=O)(=O)n1cc(-c2nc(Nc3cc(Cl)c(N4CCC(N5CCN(C)CC5)CC4)cc3OC)ncc2Cl)c2ccccc21`, the IC50 in data set [4] worked out at 24.2 nM; in data set [1], 145 nM.

Turning to `CC(C)c1cnc(N2CC(O)C2C)c2cnc(Nc3ccnc(N4CCC(O)C(C)(F)C4)n3)cc12` (stereo not given), the half-maximal inhibitory concentration (IC50) in data set [5] was 20 nM.

Take `COc1cc(N2CCN(C(C)=O)CC2)ccc1Nc1nccc(Nc2ccc(Nc3ccc(S(=O)(=O)F)cc3)cc2)n1`: the results for the IC50 in [1] and in [3] were 110 nM and 210 nM, respectively.

In the case of `COc1cc(N2CCC(N3CC(CO)C3)CC2)c(C)cc1Nc1ncc(Br)c(Nc2ccc3nccnc3c2P(C)(C)=O)n1`, in the data set on BaF3, the concentration for half-maximal inhibition (IC50) was determined as 41 nM.

With `COc1cc(N2CCN(C)CC2)c(-c2cn[nH]c2)cc1Nc1ncc(Cl)c(Nc2ccccc2P(C)(C)=O)n1`, the IC50 in [4] was 0.23 nM.

As to `CCS(=O)(=O)n1cc2c3ccc(cc31)OCCCCCCOc1cc(c(C3CC3)cc1N1CCOCC1)Nc1ncc(Cl)c-2n1`, the IC50 in data set [4] amounted to 56.4 nM.

On to `COc1cc(N2CCOCC2)c(-c2cnn(C)c2)cc1Nc1ncc(Cl)c(Nc2ccccc2P(C)(C)=O)n1`, for which the half-inhibitory concentration (IC50) came out at 0.2 nM in data set [4], 0.122 nM in data set [6] and 4.4 nM in data set [9].

In [3], `Cc1cc(Nc2ncc(Br)c(Nc3ccccc3NS(=O)(=O)C3CC3)n2)ccc1N1CCCN(C)CC1` had an IC50 of 70.7 nM.

Consider `CN1CCCN(c2ccc(Nc3ncc(Br)c(Nc4ccccc4NS(=O)(=O)C4CC4)n3)cc2)CC1`, for which the results for the concentration for half-maximal inhibition (IC50) (with BaF3; in data set [3]) were 5.6 nM and 0.61 nM, respectively.

In the case of `CCS(=O)(=O)n1cc2c3cc(ccc31)OCCCCCCCCOc1cc(ccc1N1CCOCC1)Nc1ncc(Cl)c-2n1`, the IC50 in data set [4] came to 89 nM.

Turning to `CCS(=O)(=O)n1cc2c3cc(ccc31)OCCCCOc1cc(ccc1N1CCOCC1)Nc1ncc(Cl)c-2n1`, in data set [4], the IC50 is above 1000 nM.

Take `COc1cc(N2CCC(N3CC(C(C)(C)O)C3)CC2)c(C)cc1Nc1ncc(Br)c(Nc2ccc3nccnc3c2P(C)(C)=O)n1`: the IC50 in the data set on BaF3 was found to be 18 nM.

Regarding `CC(C)c1cnc(N2CCC2)c2cnc(Nc3ccnc(N4CCC(O)C(C)(F)C4)n3)cc12` (stereo not given), in data set [5], the IC50 is 9.1 nM.

Regarding `CCS(=O)(=O)n1cc2c3ccc(cc31)OCCCCCCOc1cc(c(Cl)cc1N1CCOCC1)Nc1ncc(Cl)c-2n1`, the IC50 in data set [4] was found to be 6.2 nM.

Compound `OCCCc1nc(-c2ccc(F)cc2)c(-c2ccnc3[nH]c(-c4ccccc4)cc23)[nH]1` displayed a half-maximal inhibitory concentration (IC50) in [3] below 0.5 nM.

`CN1CCN(C2CCN(c3ccc(Nc4ncc(Cl)c(Nc5ccccc5P(C)(C)=O)n4)cc3Cl)CC2)CC1`: in [1], it took 0.7 nM to reach half-maximal inhibition (IC50).

`COc1cc(N2CCC(N(C)C)CC2)ccc1Nc1ncc(C(=O)Oc2ccccc2)c(-c2c[nH]c3ccccc23)n1`: the half-inhibitory concentration (IC50) in the data set on BaF3 was determined as 7.1 nM; in data set [3], 0.01 nM.

As to `COc1cc(N2CCC(N(C)C)CC2)c(-c2cnn(C)c2)cc1Nc1ncc(Cl)c(Nc2ccccc2P(C)(C)=O)n1`, the half-inhibitory concentration (IC50) in data set [4] is 0.19 nM.

In the case of `COc1cc(N2CCC(N)CC2)ccc1Nc1ncc(C(=O)OC(C)C)c(-c2cn(C)c3ccccc23)n1`, the IC50 with BaF3 worked out at 354 nM.

For the compound `COCCCc1nc(-c2ccc(F)cc2)c(-c2ccnc3[nH]c(-c4ccccc4)cc23)[nH]1`, the IC50 in data set [1] and in [3] was 6 nM throughout.

For the compound `CCS(=O)(=O)n1cc2c3cc(ccc31)OCCCCCCCOc1cc(ccc1N1CCOCC1)Nc1ncc(Cl)c-2n1`, the half-inhibitory concentration (IC50) in [4] worked out at 19 nM.

As for `CCS(=O)(=O)n1cc2c3cc(ccc31)OCCCCCCOc1cc(ccc1N1CCOCC1)Nc1ncc(Cl)c-2n1`, in [4], the half-inhibitory concentration (IC50) stood at 6.2 nM.

With `COc1cc(N2CCC(N3CC(N(C)C)C3)CC2)c(C)cc1Nc1ncc(Br)c(Nc2ccc3nccnc3c2P(C)(C)=O)n1`, the IC50 in the data set with BaF3 worked out at 12.7 nM.

As to `CCOC1CN(C2CCN(c3cc(OC)c(Nc4ncc(Br)c(Nc5ccc6c(c5P(C)(C)=O)OCCO6)n4)cc3C)CC2)C1`, in the data set on BaF3, the half-maximal inhibitory concentration (IC50) stood at 14 nM.

`CCP(=O)(CC)c1ccccc1Nc1nc(Nc2cc(-c3cnn(C)c3)c(N3CCOCC3)cc2OC)ncc1Cl`: in data set [4], the half-inhibitory concentration (IC50) came to 0.2 nM.

As to `CCS(=O)(=O)n1cc2c3cc(ccc31)OCCCCCOc1cc(ccc1N1CCOCC1)Nc1ncc(Cl)c-2n1`, in data set [4], the half-inhibitory concentration (IC50) is 19 nM.

Take `CC(C)c1cnc(N2CC(CS(C)(=O)=O)C2)c2cnc(Nc3ccnc(N4CCC(O)C(C)(F)C4)n3)cc12` (stereo not given): the IC50 with A549 amounted to 5290 nM.

Regarding `COCC1CN(C2CCN(c3cc(OC)c(Nc4ncc(Br)c(Nc5ccc6nccnc6c5P(C)(C)=O)n4)cc3C)CC2)C1`, the IC50 in data set [4] turned out to be 0.7 nM; in the data set on BaF3, 15 nM.

In the case of `CCS(=O)(=O)n1cc2c3ccc(cc31)OCCCCCCOc1cc(ccc1N1CCOCC1)Nc1ncc(Cl)c-2n1`, in data set [4], the IC50 was 57 nM.

For `COc1cc(N2CCC(N3CCN(C)CC3)CC2)ccc1Nc1ncc(Cl)c(-c2cn(S(=O)(=O)C3CC3)c3ccccc23)n1`, the figures for the half-maximal inhibitory concentration (IC50) in data set [4] and in data set [1] were 25.6 nM and 4.3 nM, respectively.
